Data on 23 compounds can be found in US20090048301A1 (IMCLONE SYSTEMS INCORPORATED, priority 2003, published 2009).

The test system of test [1] is A431, human epidermoid carcinoma cells. The test can be described thus: Cell cycle analysis (FACS), mitotic arrest in G2/M. It is filed as cell-based. As to conditions: Homo sapiens, A-431, 24 h, read-out: FACS Assay: concentration required to achieve inhibition in FACS assay. The protocol: The cell cycle analysis was performed as follows. Cancer cells (A431, human epidennoid carcinoma cells) were maintained in culture in D-MEM media with 10% FBS and 1 mg/ml glutamate. Prior to experiment, cells were plated onto 6-well plates for a final density of 500,000 cells/well at the time of treatment. Cells were treated with the compounds of the invention at a concentration of about 0.01 to 1 μM final concentrations (final 0.1% DMSO) for 24 hours, then trypsinized, collected, rinsed in PBS (phosphate buffered saline), and fixed in 70% cold ethanol overnight at 4° C. The cells were then rinsed with PBS, resuspended in PBS with 0.2% Tween, RNAse was added (final 1 μg/ml), cells were incubated at 37° C. for 15 min, followed by addition of Propidium Iodide (final 50 μg/ml), and a 30 minute incubation at room temperature. DNA ploidy was analyzed using flow cytometers (Epics Excel, Beckman-Coulter, or Guava PCA-96, Guava Technologies) and mitotic arrest characterized by massive accumulation of cells in the G2/M phase of cell cycle.
Cancer cells (A431, human epidermoid cells) were maintained in culture in D-MEM media with 10% FBS and 1 mg/ml glutamate. Prior to experiment, cells are plated onto 6-well plates for a final density of 500,000 cells/well at the time of treatment. Cells were treated with compounds at 0.01-1 μM final concentrations (final […] DMS 0) for 24 hours, then trypsinized, collected, rinsed in PBS (phosphate buffered saline), and fixed in 70% cold ethanol overnight at 4° C. Cells were then rinsed with PBS, resuspended in PBS with 0.2% Tween, RNAse was added (final 1 μg/ml), cells were incubated at 37° C. for 15 min, followed by addition of Propidium Iodide (final 50 μg/ml), and a 30 minute incubation at room temperature. DNA ploidy was analyzed using cell sorters (Epics Excel, Beckman-Coulter, or Guava PCA-96, Guava Technologies) and mitotic arrest characterized by massive accumulation of cells in the G2/M phase of cell cycle.
For orientation: In flow cytometry, cells or beads pass a laser one at a time.

A further test relates to bovine tubulin. The test can be described thus: In vitro tubulin polymerization assay (turbidity at 340 nm). As to conditions: 10 μM compound, 30 minute data point, vs 1% DMSO control. The format is biochemical. A digest of the protocol:
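Bovine tubulin (97%, <3% MAPs) at 3 mg/ml final in G-PEM pH 7 with 1 mM GTP and 5% glycerol, added cold to compound wells at 37° C (1% DMSO final). A340 read each minute for 30 min; percent inhibition from 30-min point versus DMSO control.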

As for `Fc1ccc(CNc2ncccc2-c2nnc(-c3ccc4c(c3)OCO4)[nH]2)cc1F` [Compound 101, [3-(5-Benzo[1,3]dioxol-5-yl-4H-[1,2,4]triazol-3-yl)-pyridin-2-yl]-(3,4-difluoro-benzyl)-amine], the minimal effective concentration in test [1] came out at 1 µM. In the test with bovine tubulin, the “Tubulin Assay: percent inhibition at 10 μM based on 30 minute data” value (“Tubulin Assay: percent inhibition” for short) was 66%.

Regarding `CS(=O)(=O)c1ccc(-c2nnc(-c3cccnc3NCc3ccc(F)c(F)c3)[nH]2)cc1` [Compound 102, (3,4-Difluoro-benzyl)-{3-[5-(4-methanesulfonyl-phenyl)-4H-[1,2,4]triazol-3-yl]-pyridin-2-yl}-amine], in test [1], the minimal effective concentration was 0.1 µM. Moreover, in the test with bovine tubulin, the “Tubulin Assay: percent inhibition” value was found to be 88%.

As for `CS(=O)(=O)c1ccc(-c2nnc(-c3cccnc3NCC3COCCO3)[nH]2)cc1` (stereo not shown) [Compound 103, [1,4]Dioxan-2-ylmethyl-{3-[5-(4-methanesulfonyl-phenyl)-4H-[1,2,4]triazol-3-yl]-pyridin-2-yl}-amine], in test [1], the minimal effective concentration was 1 µM. The “Tubulin Assay: percent inhibition” value in the test on bovine tubulin was determined as 80%.

Turning to `CS(=O)(=O)c1ccc(-c2nnc(-c3cccnc3NCc3ccc4c(c3)OCCO4)[nH]2)cc1` [Compound 105, (2,3-Dihydro-benzo[1,4]dioxin-6-ylmethyl)-{3-[5-(4-methanesulfonyl-phenyl)-4H-[1,2,4]triazol-3-yl]-pyridin-2-yl}-amine], the minimal effective concentration in test [1] worked out at 1 µM. Besides, the “Tubulin Assay: percent inhibition” value in the test with bovine tubulin came to 91%.

Consider `CS(=O)(=O)c1ccc(-c2nnc(-c3cccnc3NCC3CCCO3)[nH]2)cc1` (stereo not shown) [Compound 106, {3-[5-(4-Methanesulfonyl-phenyl)-4H-[1,2,4]triazol-3-yl]-pyridin-2-yl}-(tetrahydro-furan-2-ylmethyl)-amine], for which, in test [1], the minimal effective concentration was determined as 0.1 µM. Also, in the test with bovine tubulin, the “Tubulin Assay: percent inhibition” value stood at 79%.

`CS(=O)(=O)c1ccc(-c2nnc(-c3cccnc3NCc3ccc(F)cc3)[nH]2)cc1` [Compound 108, (4-Fluoro-benzyl)-{3-[5-(4-methanesulfonyl-phenyl)-4H-[1,2,4]triazol-3-yl]-pyridin-2-yl}-amine]: the minimal effective concentration in test [1] was 0.1 µM. Moreover, in the test with bovine tubulin, the “Tubulin Assay: percent inhibition” value is 91%.

Consider `c1ccc(-c2nnc(Nc3ccc4c(c3)OCCO4)[nH]2)c(NCc2ccc3[nH]ncc3c2)c1` [Compound 117, (2,3-Dihydro-benzo[1,4]dioxin-6-yl)-(5-{2-[(1H-indazol-5-ylmethyl)-amino]-phenyl}-4H-[1,2,4]triazol-3-yl)-amine], for which the minimal effective concentration in test [1] was found to be 1 µM. In addition, the “Tubulin Assay: percent inhibition” value with bovine tubulin is recorded as 84%.

As for `c1ccc(-c2nnc(Nc3ccc4c(c3)OCO4)[nH]2)c(NCc2ccc3[nH]ncc3c2)c1` [Compound 119, Benzo[1,3]dioxol-5-yl-(5-{2-[(1H-indazol-5-ylmethyl)-amino]-phenyl}-4H-[1,2,4]triazol-3-yl)-amine], the minimal effective concentration in test [1] came out at 1 µM. Moreover, the “Tubulin Assay: percent inhibition” value in the test on bovine tubulin was 76%.

Take `c1ccc(-c2nnc(Nc3ccc4c(c3)OCCO4)[nH]2)c(NCc2ccncc2)c1` [Compound 122, (2,3-Dihydro-benzo[1,4]dioxin-6-yl)-(5-{2-[(pyridin-4-ylmethyl)-amino]-phenyl}-4H-[1,2,4]triazol-3-yl)-amine]: the minimal effective concentration in test [1] turned out to be 1 µM. Moreover, the “Tubulin Assay: percent inhibition” value in the test with bovine tubulin is 84%.

For `COc1cccc(Nc2nnc(-c3ccccc3NCc3ccc4[nH]ncc4c3)[nH]2)c1` [Compound 123, (5-{2-[(1H-Indazol-5-ylmethyl)-amino]-phenyl}-4H-[1,2,4]triazol-3-yl)-(3-methoxy-phenyl)-amine], in test [1], the minimal effective concentration came to 1 µM. Further, in the test on bovine tubulin, the “Tubulin Assay: percent inhibition” value is on record as 75%.

Turning to `FC(F)(F)c1ccc(-c2nnc(Nc3ccc4c(c3)OCO4)[nH]2)c(NCc2ccncc2)c1` [Compound 124, Benzo[1,3]dioxol-5-yl-(5-{2-[(pyridin-4-ylmethyl)-amino]-4-trifluoromethyl-phenyl}-4H-[1,2,4]triazol-3-yl)-amine], the minimal effective concentration in test [1] was determined as 0.1 µM. Further, in the test on bovine tubulin, the “Tubulin Assay: percent inhibition” value worked out at 93%.

For `O=S(=O)(Nc1ccccc1-c1nnc(Nc2ccc3c(c2)OCCO3)[nH]1)c1cccc(OC(F)(F)F)c1` [Compound 127, N-{2-[5-(2,3-Dihydro-benzo[1,4]dioxin-6-ylamino)-4H-[1,2,4]triazol-3-yl]-phenyl}-3-trifluoromethoxy-benzenesulfonamide], the minimal effective concentration in test [1] worked out at 10 µM. Also, the “Tubulin Assay: percent inhibition” value in the test with bovine tubulin came out at 61%.

As for `CS(=O)(=O)c1ccc(-c2nnc(-c3ccccc3NCc3ccc4c(c3)OCO4)[nH]2)cc1` [Compound 133, Benzo[1,3]dioxol-5-ylmethyl-{2-[5-(4-methanesulfonyl-phenyl)-4H-[1,2,4]triazol-3-yl]-phenyl}-amine], the minimal effective concentration in test [1] amounted to 1 µM. Also, the “Tubulin Assay: percent inhibition” value with bovine tubulin came to 86%.

On to `COc1cccc(-c2nnc(-c3ccccc3NCc3ccc4[nH]ncc4c3)[nH]2)c1` [Compound 136, (1H-Indazol-5-ylmethyl)-{2-[5-(3-methoxy-phenyl)-4H-[1,2,4]triazol-3-yl]-phenyl}-amine], for which the minimal effective concentration in test [1] was found to be 10 µM. For the same compound, the “Tubulin Assay: percent inhibition” value with bovine tubulin stood at 32%.

For `FC(F)(F)Oc1cccc(-c2nnc(-c3ccccc3NCc3ccc4c(c3)OCO4)[nH]2)c1` [Compound 141, Benzo[1,3]dioxol-5-ylmethyl-{2-[5-(3-trifluoromethoxy-phenyl)-4H-[1,2,4]triazol-3-yl]-phenyl}-amine], the minimal effective concentration in test [1] came out at 0.1 µM. The “Tubulin Assay: percent inhibition” value in the test with bovine tubulin is 88%.

For the compound `Brc1ccc(-c2nnc(-c3ccccc3NCc3ccc4[nH]ncc4c3)[nH]2)cc1` [Compound 145, {2-[5-(4-Bromo-phenyl)-4H-[1,2,4]triazol-3-yl]-phenyl}-(1H-indazol-5-ylmethyl)-amine], the minimal effective concentration in test [1] came to 0.1 µM. For the same compound, the “Tubulin Assay: percent inhibition” value with bovine tubulin was 58%.

As for `COc1cccc(-c2nnc(-c3ccccc3NCc3ccc4c(c3)OCO4)[nH]2)c1` [Compound 148, Benzo[1,3]dioxol-5-ylmethyl-{2-[5-(3-methoxy-phenyl)-4H-[1,2,4]triazol-3-yl]-phenyl}-amine], in test [1], the minimal effective concentration stood at 10 µM. For the same compound, in the test with bovine tubulin, the “Tubulin Assay: percent inhibition” value is reported as 71%.

Consider `Fc1ccc(CNc2ncccc2-c2nnc(Nc3ccc4c(c3)OCO4)o2)cc1F` [Compound 155, {3-[5-(Benzo[1,3]dioxol-5-ylamino)-[1,3,4]oxadiazol-2-yl]-pyridin-2-yl}-(3,4-difluoro-benzyl)-amine], for which, in test [1], the minimal effective concentration is 1 µM. The “Tubulin Assay: percent inhibition” value in the test on bovine tubulin is listed as 91%.

With `COc1cccc(CNc2ncccc2-c2nnc(Nc3ccc4c(c3)OCO4)o2)c1` [Compound 156, {3-[5-(Benzo[1,3]dioxol-5-ylamino)-[1,3,4]oxadiazol-2-yl]-pyridin-2-yl}-(3-methoxy-benzyl)-amine], the minimal effective concentration in test [1] is 1 µM. For the same compound, the “Tubulin Assay: percent inhibition” value in the test on bovine tubulin stood at 64%.

As for `COc1ccc(CNc2ncccc2-c2nnc(Nc3ccc4c(c3)OCO4)o2)cc1` [Compound 157, {3-[5-(Benzo[1,3]dioxol-5-ylamino)-[1,3,4]oxadiazol-2-yl]-pyridin-2-yl}-(4-methoxy-benzyl)-amine], the minimal effective concentration in test [1] was determined as 1 µM. In addition, the “Tubulin Assay: percent inhibition” value in the test on bovine tubulin stood at 92%.

With `COc1cccc(CNc2ncccc2-c2nnc(Nc3ccc4c(c3)OCCO4)o2)c1` [Compound 159, {3-[5-(2,3-Dihydro-benzo[1,4]dioxin-6-ylamino)-[1,3,4]oxadiazol-2-yl]-pyridin-2-yl}-(3-methoxy-benzyl)-amine], in test [1], the minimal effective concentration was 0.075 µM. The “Tubulin Assay: percent inhibition” value in the test on bovine tubulin was found to be 87%.

Take `COc1ccc(CNc2ncccc2-c2nnc(Nc3ccc4c(c3)OCCO4)o2)cc1` [Compound 160, {3-[5-(2,3-Dihydro-benzo[1,4]dioxin-6-ylamino)-[1,3,4]oxadiazol-2-yl]-pyridin-2-yl}-(4-methoxy-benzyl)-amine]: the minimal effective concentration in test [1] is 0.1 µM. The “Tubulin Assay: percent inhibition” value with bovine tubulin was determined as 89%.

Regarding `Fc1ccc(CNc2ncccc2-c2nnc(Nc3ccc4c(c3)OCCO4)o2)cc1F` [Compound 161, (3,4-Difluoro-benzyl)-{3-[5-(2,3-dihydro-benzo[1,4]dioxin-6-ylamino)-[1,3,4]oxadiazol-2-yl]-pyridin-2-yl}-amine], the minimal effective concentration in test [1] is 0.1 µM. Further, in the test on bovine tubulin, the “Tubulin Assay: percent inhibition” value was 82%.
